Test results: patent EP4792811A1, “S1PR4 REGULATOR COMPOUND FOR MUSCLE DISEASE TREATMENT AND APPLICATION THEREOF” (Shengyuan Zetong (Shanghai) Pharmaceutical Co., Ltd, priority 2023, dated 2025)

Legend:
S1PR5 = target: T1, S1PR5 (Homo sapiens, UniProt Q9H228); assay: FLIPR assay, S1PR5-CHO cell line; assay type: cell-based
T1 construct: expressed in transfected cells; host or cells: CHO
Procedure: (§1) ^a β-arrestin recruitment activity based on Tango-S1PR1-CHO-K1 and Tango-S1PR4-CHO-K1 cells, expressed as mean EC50 values ± SD. ^b FLIPR assays were performed using S1PR2-CHO and S1PR5-CHO cell lines, expressed as mean EC50 values ± SD. ^c β-arrestin recruitment activity based on PathHunter CHO-K1-S1PR3 cells, expressed as mean EC50 values ± SD. Data are the mean of at least two independent determinations, reported as mean ± SD (standard deviation).

[1] = test system: S1PR4-R82C/NDUFA10-R217W double-mutant mice; assay: In vivo efficacy in S1PR4-R82C/NDUFA10-R217W double-mutant muscular dystrophy mice; details: for grip strength (ratio of grip strength to body weight): after 21 days of treatment; for body weight gain trend: compared with the model group; for collagen deposition (collagen area ratio): after administration
Procedure: Experimental Animals: A total of 34 S1PR4-R82C/NDUFA10-R217W mice were divided into 6 groups as shown below.
Intragastric administration was initiated on Day 0, and body weight was measured daily during the experiment to adjust the drug dosage. Grip strength was measured at the beginning and end of the experiment to observe motor changes in mice. Changes in the limb grip strength, serum creatine kinase content, and muscle fibrosis/inflammation in mice were detected as indicators for evaluating drug efficacy.
The mouse was placed horizontally on the grip test board. The mouse's tail was held and pulled gently in the opposite direction without using excessive force. The tail was gradually pulled until the mouse released the grip force sensor. The maximum value recorded by the grip force sensor is the grip strength. The test was repeated for 3 times and the average value was taken.
After the completion of administration, blood was collected via the orbital sinus, allowed to stand for 30 minutes, centrifuged at 3000 rpm at 4°C for 15 minutes, and serum was extracted, stored frozen at -20°C, and detected in accordance with the kit instructions.
After the experiment, the tibialis anterior, extensor digitorum longus, and diaphragm of the mice were harvested, fixed, sectioned, and subjected to HE staining and Sirius Red staining to observe the degree of muscle fibrosis. The slice was subjected to immunofluorescence staining with F4/80 to observe the level of muscle inflammation.

hS1P4 = target: T2, hS1P4 (Homo sapiens, UniProt O95977); assay: Tango β-arrestin recruitment assay, Tango-hS1P4-CHO; assay type: cell-based; details: selectivity table; Tango-S1PR4-CHO-K1 cells
T2 construct: expressed in transfected cells; host or cells: CHO-K1
T2 sequence (O95977 1-384): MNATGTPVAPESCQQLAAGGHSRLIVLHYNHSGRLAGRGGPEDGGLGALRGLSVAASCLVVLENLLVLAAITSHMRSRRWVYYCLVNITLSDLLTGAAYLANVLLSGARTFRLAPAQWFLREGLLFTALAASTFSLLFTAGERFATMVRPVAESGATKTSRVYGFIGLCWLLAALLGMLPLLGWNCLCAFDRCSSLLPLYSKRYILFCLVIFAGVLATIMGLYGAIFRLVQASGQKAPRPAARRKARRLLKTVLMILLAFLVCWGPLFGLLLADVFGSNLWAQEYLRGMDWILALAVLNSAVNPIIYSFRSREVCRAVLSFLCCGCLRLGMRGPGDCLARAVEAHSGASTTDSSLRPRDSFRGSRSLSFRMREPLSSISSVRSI
Excerpt: (§2) The Tango assay detects ligand-dependent GPCR activity through the interaction between β-arrestin and GPCRs. […] The NTEV fragment and the tetracycline transactivator (tTA), an artificial transcription factor, are fused at the C-terminus of the GPCR, while the CTEV fragment is fused to human β-arrestin 2. To enhance the stability of the interaction between GPCR and β-arrestin, a short sequence from the C-terminus of the human arginine vasopressin receptor 2 (V2 tail) is inserted between the GPCR and NTEV. The V2 tail contains multiple GRK phosphorylation sites, which strengthen β-arrestin binding upon phosphorylation. The CTEV fragment carries the stabile point mutation S219P and is truncated at residue 221 to remove the autoinhibitory C-terminal tail. Meanwhile, β-arrestin 2 is truncated to lack the entire C-terminal tail (residues 383-410 deleted). This truncation confers robust stimulus-dependent receptor desensitization, thereby improving detection sensitivity compared with wild-type β-arrestin 2. The UAS reporter construct consists of upstream activating sequence (UAS) elements, a minimal CMV promoter, and a tTA-dependent luciferase reporter gene. Therefore, constructing Tango cells requires the co-transfection of the above three plasmids into host cells. Upon GPCR activation and β-arrestin recruitment, the TEV enzyme at the β-arrestin terminus cleaves tTA from the GPCR C-terminus. The released tTA initiates tTA-dependent luciferase transcription, and compound activity is ultimately determined by measuring luminescence intensity.
(§3) • 1) Tango cell line from was digested from the culture dish respectively. After cell counting, the cells were plated at a density of 10,000 cells per well with […] into a white opaque 96-well plate (add 60 µL D'Hanks to the surrounding wells), and incubated overnight (20 h) in a 5% CO2 incubator at 37°C. The cell density will reach approximately 90% the next day. • 2) After 20 h, 30 µL of serially diluted compound solution was added to each well. The control group was supplemented with 30 µL F12K complete medium. Each group had three replicate wells. • 3) Samples were collected after 20 h of drug treatment.
(§4) (All compounds were tested at a final concentration of 45 µM, with 9 serial dilutions at 5-fold intervals. 1 µM BAF-312 was used as the positive control for S1PR1, and 25 µM BAF-312 was used as the positive control for S1PR4.)
as §1

S1PR4 = target: T3, S1PR4 (Homo sapiens, UniProt O95977); assay: S1PR4 internalization function test in S1PR4-293T cells; assay type: cell-based; details: 1 µM, 37 °C, 1.5 hours; detected immediately, or at 5 hours or 20 hours after treatment
T3 construct: expressed in transfected cells; host or cells: 293T
T3 sequence (O95977 1-384): T2 sequence (O95977 1-384)
Procedure: Therefore, the recovery degree of S1PR4 after internalization caused by Compound 30 was evaluated, and the recovery effect following receptor internalization caused by Compound 30 was assessed in cells with high S1PR4 expression.

S1PR2 = target: T4, S1PR2 (Homo sapiens, UniProt O95136); assay: FLIPR assay, S1PR2-CHO cell line; assay type: cell-based
T4 construct: expressed in transfected cells; host or cells: CHO
Procedure: as §1

hS1P1 = target: T5, hS1P1 (Homo sapiens, UniProt P21453); assay: Tango β-arrestin recruitment assay, Tango-hS1P1-CHO; assay type: cell-based; details: selectivity table; Tango-S1PR1-CHO-K1 cells
T5 construct: expressed in transfected cells; host or cells: CHO-K1
Excerpt: as §2, §3, §4, §1

S1PR3 = target: T6, S1PR3 (Homo sapiens, UniProt Q99500); assay: β-arrestin recruitment, PathHunter CHO-K1-S1PR3 cells; assay type: cell-based
T6 construct: expressed in transfected cells; host or cells: PathHunter CHO-K1
Procedure: as §1

[2] = compared with the endogenous ligand S1P
[3] = 0.3 mg/kg intragastric once daily
[4] = 1 mg/kg intragastric once daily
[5] = 1 mg/kg intragastric once daily, after treatment
[6] = 3 mg/kg intragastric once daily

T1 sequence (Q9H228 whole entry, species assumed): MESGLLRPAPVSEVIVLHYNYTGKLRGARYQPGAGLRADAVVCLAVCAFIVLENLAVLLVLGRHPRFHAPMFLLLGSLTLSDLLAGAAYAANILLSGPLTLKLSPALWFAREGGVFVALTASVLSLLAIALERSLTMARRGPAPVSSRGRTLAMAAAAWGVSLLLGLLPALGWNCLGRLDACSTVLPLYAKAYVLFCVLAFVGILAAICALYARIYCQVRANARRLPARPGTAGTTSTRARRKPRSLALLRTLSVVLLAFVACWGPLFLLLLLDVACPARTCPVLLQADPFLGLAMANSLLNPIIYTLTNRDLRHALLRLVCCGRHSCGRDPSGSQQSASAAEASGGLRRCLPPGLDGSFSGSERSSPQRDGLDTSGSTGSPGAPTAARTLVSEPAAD
T6 sequence (Q99500 whole entry): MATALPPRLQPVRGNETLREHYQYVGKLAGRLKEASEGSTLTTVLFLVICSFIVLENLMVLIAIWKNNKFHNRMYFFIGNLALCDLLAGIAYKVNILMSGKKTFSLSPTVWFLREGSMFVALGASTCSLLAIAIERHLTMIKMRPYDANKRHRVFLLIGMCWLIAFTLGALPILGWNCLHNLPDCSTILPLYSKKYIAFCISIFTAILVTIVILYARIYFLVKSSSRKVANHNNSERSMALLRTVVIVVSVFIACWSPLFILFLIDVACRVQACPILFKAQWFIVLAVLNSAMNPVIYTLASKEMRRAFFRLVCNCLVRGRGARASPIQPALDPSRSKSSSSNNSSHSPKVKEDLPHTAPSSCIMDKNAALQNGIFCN
T4 sequence (O95136 whole entry, species assumed): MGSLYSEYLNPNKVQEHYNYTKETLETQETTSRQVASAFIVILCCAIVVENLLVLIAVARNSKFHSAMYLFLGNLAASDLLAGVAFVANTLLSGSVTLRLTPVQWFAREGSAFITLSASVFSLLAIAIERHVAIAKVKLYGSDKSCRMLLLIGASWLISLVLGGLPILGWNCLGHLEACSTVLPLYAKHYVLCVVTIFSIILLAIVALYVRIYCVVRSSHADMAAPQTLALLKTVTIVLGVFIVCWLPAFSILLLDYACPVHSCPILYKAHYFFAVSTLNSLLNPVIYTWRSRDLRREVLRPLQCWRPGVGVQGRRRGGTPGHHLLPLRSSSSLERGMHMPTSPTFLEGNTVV
T5 sequence (P21453 whole entry): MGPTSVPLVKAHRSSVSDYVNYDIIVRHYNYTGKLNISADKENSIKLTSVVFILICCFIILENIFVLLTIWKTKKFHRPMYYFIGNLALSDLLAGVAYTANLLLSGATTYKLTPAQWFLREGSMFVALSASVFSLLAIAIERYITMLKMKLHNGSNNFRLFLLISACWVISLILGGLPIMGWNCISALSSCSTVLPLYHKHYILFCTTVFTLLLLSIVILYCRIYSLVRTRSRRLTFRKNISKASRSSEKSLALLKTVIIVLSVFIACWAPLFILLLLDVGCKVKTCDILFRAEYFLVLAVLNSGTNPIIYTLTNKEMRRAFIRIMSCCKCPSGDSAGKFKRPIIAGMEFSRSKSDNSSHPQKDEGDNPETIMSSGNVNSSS

CCc1cc(/C(C)=N/OCc2ccc(-c3ccccc3)c(C)c2)ccc1CN1CC[C@H](C(=O)O)C1 [Compound 30]
agonist activity on S1PR5 (S1PR5; [2]): no agonist activity | Emax (S1PR5; selectivity table, FLIPR, S1PR5-CHO): 19.5% | grip strength (ratio of grip strength to body weight) [1, 3]: significantly increased | body weight gain trend [1, 3]: no difference | grip strength (ratio of grip strength to body weight) [1, 4]: significantly increased | collagen deposition (collagen area ratio) [1, 4]: significantly reduced collagen deposition | macrophage content (F4/80 immunofluorescence, muscle inflammation) [1, 5]: greatest reduction | number of centrally nucleated fibers (HE staining) [1, 5]: greatest reduction | serum creatine kinase level [1, 5]: significantly reduced | body weight gain trend [1, 4]: no difference | collagen deposition (collagen area ratio) [1, 6]: significantly reduced collagen deposition | body weight gain trend [1, 6]: no difference | serum creatine kinase level ([1]; 4 mg/kg (so in the source) intragastric once daily, after treatment): significantly reduced | Emax (hS1P4): 104% | S1PR4 internalization (expression of S1PR4 receptor on the cell surface) (S1PR4): sustained internalization capacity | agonist activity on S1PR2 (S1PR2; [2]): no agonist activity | Emax (S1PR2; selectivity table, FLIPR, S1PR2-CHO): -6.9% | Emax (hS1P1): 102% | agonist activity on S1PR3 (S1PR3; [2]): no agonist activity | Emax (S1PR3; selectivity table, PathHunter CHO-K1-S1PR3): 2.25%
